Tests used:
[1] = tested on: TAP, MHC class I, and HDACs 8 and 10; assay: mRNA expression in A9 cells (RT-PCR); assay type: cell-based, murine; settings: 0.064 μmol
Excerpt: (§1) Methods primarily used: Fluorescence Activated Cell Sorting (FACS), western blot, RealTime-PCR (RT-PCR), Proteome Profiler Mouse Cytokine Array Kit (Panel A).

A9 cells = assay: Proteome Profiler Mouse XL cytokine array on A9 cells; assay type: cell-based, murine; settings: 0.014 mg/ml (0.064 umol) vs DMSO
Protocol: as §1
Upon addition of 0.014 mg/ml (0.064 umol) of Curcuphenol, there was a change in the cytokine production of A9 cells, relative to that of cells treated with only vehicle DMSO. This treatment was done in 2 mL of DMEM media, at an initial seeding density of 1×10^6 A9 cells, and treatment with Curcuphenol in DMSO vehicle or DMSO vehicle was done 24 hours after seeding A9 cells. A9 cells are murine metastatic epithelial carcinoma cells. Cytokine change was seen using the Proteome Profiler Mouse XL cytokine array (R&D Systems, ARY028).

## CC(C)=CCC[C@H](C)c1ccc(C)cc1O [Curcuphenol, curcuphenol]
[1]
  mRNA expression of HDAC 8: increased mRNA expression
  mRNA expression of HDAC 10: increased mRNA expression
  mRNA expression of MHC class I: increased mRNA expression
  mRNA expression of TAP: increased mRNA expression
A9 cells
  Adiponectin/Acrp30 production: Decrease
  Amphiregulin production: Decrease
  Angiopoietin-1 production: Decrease
  Angiopoietin-2 production: Increase
  Angiopoietin-like 3 production: Increase
  CCL2/JE/MCP-1 production: Decrease
  CCL5/RANTES production: Decrease
  CCL6/C10 production: Decrease
  CCL11/Eotaxin production: Decrease
  CCL12/MCP-5 production: Increase
  CCL17/TARC production: Decrease
  CCL19/MIP-3beta production: Increase
  CCL22/MDC production: Decrease
  CD40/TNFRSF5 production: Increase
  CD160 production: Decrease
  CX3CL1/Fractalkine production: Increase
  CXCL9/MIG production: Decrease
  CXCL10/IP-10 production: Decrease
  CXCL11/I-TAC production: Decrease
  CXCL13/BLC/BCA-1 production: Increase
  CXCL16 production: Increase
  Chemerin production: Decrease
  Coagulation Factor III/Tissue Factor production: Increase
  Cystatin C production: Increase
  DGF-BB production: Increase
  E-Selectin/CD62-E production: Decrease
  Endostatin production: Decrease
  FGF-21 production: Increase
  Flt-3 Ligand production: Decrease
  G-CSF production: Increase
  GDF-15 production: Increase
  Gas 6 production: Increase
  IFN-gamma production: Increase
  IGFBP-2 production: Decrease
  IGFBP-3 production: Decrease
  IGFBP-6 production: Decrease
  IL-1alpha/IL-1F1 production: Increase
  IL-1beta/IL-1F2 production: Increase
  IL-1ra/IL-1F3 production: Increase
  IL-6 production: Decrease
  IL-7 production: Decrease
  IL-10 production: Decrease
  IL-11 production: Decrease
  IL-12 p40 production: Decrease
  IL-13 production: Increase
  IL-15 production: Increase
  IL-28A/B production: Increase
  IL-33 production: Increase
  LIX production: Increase
  Leptin production: No change
  M-CSF production: Decrease
  MMP-2 production: Decrease
  MMP-3 production: Decrease
  Myeloperoxidase production: Increase
  Osteopontin (OPN) production: Increase
  P-Selectin/CD62P production: Decrease
  Pentraxin 2/SAP production: Decrease
  Pentraxin 3/TSG-14 production: Increase
  Periostin/OSF-2 production: No change
  Pref-1/DLK-1/FA1 production: Decrease
  Proliferin production: Increase
  Proprotein Convertase 9/PCSK9 production: No change
  Serpin E1/PAI-1 production: Increase
  Serpin F1/PEDF production: Increase
  TIM-1/KIM-1/HAVCR production: Increase
  TNF-alpha production: Decrease
  VCAM-1/CD106 production: No change
  VEGF production: Increase
  WISP-1/CCN4 production: Decrease
